Test results published in patent publication US9388199B2, “Pyrrolidine derivatives and their use as complement pathway modulators” (priority 2012, dated 2016).

target: Recombinant human factor D (Homo sapiens (Human), UniProt P00746); test: Human Complement Factor D Assay: Method 1; assay type: biochemical; details: 10 nM factor D, substrate Z-Lys-thiobenzyl, fluorescence readout, read-out: IC50 (μM), Factor D inhibition
Procedure: Human Complement Factor D Assay: Method 1
Recombinant human factor D (expressed in E. coli and purified using standard methods) at 10 nM concentration is incubated with test compound at various concentrations for 1 hour at room temperature in 0.1 M Hepes buffer, pH 7.5, containing 1 mM MgCl2, 1 M NaCl and 0.05% CHAPS. A synthetic substrate Z-Lys-thiobenzyl and 2,4-dinitrobenzenesulfonyl-fluoresceine are added to final concentrations of 200 μM and 25 μM, respectively. The increase in fluorescence is recorded at excitation of 485 nm and emission at 535 nm in a microplate spectrofluorimeter. IC50 values are calculated from percentage of inhibition of complement factor D-activity as a function of test compound concentration.

Sequence of Recombinant human factor D (P00746 26-253): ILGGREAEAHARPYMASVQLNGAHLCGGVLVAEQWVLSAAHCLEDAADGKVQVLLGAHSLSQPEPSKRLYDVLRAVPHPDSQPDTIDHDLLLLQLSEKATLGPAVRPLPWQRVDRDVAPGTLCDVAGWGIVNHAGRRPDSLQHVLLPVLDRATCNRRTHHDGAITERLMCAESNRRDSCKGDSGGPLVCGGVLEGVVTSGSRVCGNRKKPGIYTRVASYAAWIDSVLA

| SMILES | IC50 |
| --- | --- |
| NC(=O)c1nn(CC(=O)N2[C@@H]3C[C@@H]3C[C@H]2C(=O)NCCF)c2ccccc12 [Example 41, 1-{2-[(1R,3S,5R)-3-(2-Fluoro-ethylcarbamoyl)-2-aza-bicyclo[3.1.0]hex-2-yl]-2-oxo-ethyl}-1H-indazole-3-carboxylic acid amide] | 1.35 µM |
| CO[C@@H]1CN(C(=O)Cn2nc(C(N)=O)c3ccccc32)[C@H](C(=O)NCCC(C)(C)C)[C@H]1F [Example 11, 1-{2-[(2R,3R,4R)-2-(3,3-Dimethyl-butylcarbamoyl)-3-fluoro-4-methoxy-pyrrolidin-1-yl]-2-oxo-ethyl}-1H-indazole-3-carboxylic acid amide] | 14.6 µM |
| CC(C)(C)CCNC(=O)[C@@H]1C[C@H]2C[C@H]2N1C(=O)Cn1nc(C(N)=O)c2ccncc21 [Example 6, 1-{2-[(1R,3S,5R)-3-(3,3-Dimethyl-butylcarbamoyl)-2-aza-bicyclo[3.1.0]hex-2-yl]-2-oxo-ethyl}-1H-pyrazolo[3,4-c] pyridine-3-carboxylic acid amide] | 0.168 µM |
| CC(=O)c1nn(CC(=O)N2[C@@H]3C[C@@H]3C[C@H]2C(=O)NCCCOC(F)(F)F)c2ccccc12 [Example 2, (1R,3S,5R)-2-[2-(3-Acetyl-indazol-1-yl)-acetyl]-2-aza-bicyclo[3.1.0]hexane-3-carboxylic acid (3-trifluoromethoxy-propyl)-amide] | 0.605 µM |
| CC(C)(C)C(F)CNC(=O)[C@@H]1C[C@H]2C[C@H]2N1C(=O)Cn1nc(C(N)=O)c2ccccc21 (stereo partly drawn) [Example 44, 1-{2-[(1R,3S,5R)-3-(2-Fluoro-3,3-dimethyl-butylcarbamoyl)-2-aza-bicyclo[3.1.0]hex-2-yl]-2-oxo-ethyl}-1H-indazole-3-carboxylic acid amide] | 0.384 µM |
| NC(=O)n1cc(NC(=O)N2[C@@H]3C[C@@H]3C[C@H]2C(=O)NCCOC(F)(F)C(F)(F)F)c2ccccc21 [Example 27, (1R,3S,5R)-2-Aza-bicyclo [3.1.0]hexane-2,3-di arboxylic acid 2-[(1-carbamoyl-1H-indol-3-yl)-amide] 3-[(2-pentafluoroethyloxy-ethyl)-amide]] | 1.97 µM |
| CC(C)(C)C[C@H](CO)NC(=O)[C@@H]1C[C@H]2C[C@H]2N1C(=O)Cn1nc(C(N)=O)c2ccccc21 [Example 42, 1-{2-[(1R,3S,5R)-3-((R)-1-Hydroxymethyl-3,3-dimethyl-butylcarbamoyl)-2-aza-bicyclo[3.1.0]hex-2-yl]-2-oxo-ethyl}-1H-indazole-3-carboxylic acid amide] | 5.36 µM |
| CCNC(=O)[C@@H]1C[C@H]2C[C@H]2N1C(=O)Cn1nc(C(N)=O)c2ccncc21 [Example 12, 1-[2-((1R,3S,5R)-3-Ethylcarbamoyl-2-aza-bicyclo [3.1.0]hex-2-yl)-2-oxo-ethyl]-1H-pyrazolo[3,4-c]pyridine-3-carboxylic acid amide] | 7.22 µM |
| CC(=O)c1nn(CC(=O)N2[C@@H]3C[C@@H]3C[C@H]2C(=O)NCCOC(F)(F)F)c2ccc(OCc3ncccn3)cc12 [Example 15, (1R,3S,5R)-2-{2-[3-Acetyl-5-(pyrimidin-2-ylmethoxy)-indazol-1-yl]-acetyl}-2-aza-bicyclo[3.1.0]hexane-3-carboxylic acid (2-trifluoro methoxy-ethyl)-amide] | 0.021 µM |
| NC(=O)n1cc(NC(=O)N2[C@@H]3C[C@@H]3C[C@H]2C(=O)NCCCOC(F)(F)F)c2ccccc21 [Example 25, (1R,3S,5R)-2-Aza-bicyclo [3.1.0]hexane-2,3-dicarboxylic acid 2-[(1-carbamoyl-1H-indol-3-yl)-amide] 3-[(3-trifluoromethoxy-propyl)-amide]] | 0.912 µM |
| NC(=O)c1nn(CC(=O)N2[C@@H]3C[C@@H]3C[C@H]2C(=O)NCC(F)F)c2ccccc12 [Example 32, 1-{2-[(1R,3S,5R)-3-(2,2-Difluoro-ethylcarbamoyl)-2-aza-bicyclo[3.1.0]hex-2-yl]-2-oxo-ethyl}-1H-indazole-3-carboxylic acid amide] | 0.874 µM |
